These results are taken from ChEMBL document CHEMBL5046267, “Discovery of N-Trisubstituted Pyrimidine Derivatives as Type I RET and RET Gatekeeper Mutant Inhibitors with a Novel Kinase Binding Pose” (J Med Chem, 2022).

Experiment [1] relates to HEK293T. Kind of experiment: Inhibition of autophosphorylation of NCOA4-RET V804M mutant (unknown origin) transfected HEK293T cells assessed as inhibition of autophosphorylation of RET at 100 to 2500 nM measured after 2 hrs by Western blotting analysis. In kind it is cell-based. As to conditions: Homo sapiens, dose 100-2500 nM.
The test system of experiment [2] is HEK293T. As to the kind of experiment: Inhibition of autophosphorylation of human NCOA4-RET G810R mutant transfected HEK293T cells assessed as inhibition of autophosphorylation of RET at 100 to 2500 nM measured after 2 hrs by Western blotting analysis. It counts as cell-based. The following applies: dose 100-2500 nM.

Calls of active or inactive are those of the source. No cut-off for these calls is given here.

As to `Cc1cc(Nc2cc(N3CCN(C)CC3)nc(Nc3ccc(CC(=O)Nc4cccc(F)c4)cc3)n2)[nH]n1`, the inhibition entry in experiment [1] was “Active”. Also, the inhibition result in experiment [2] is “inactive”.

As for `Cc1cc(Nc2cc(N3CCN(C)CC3)nc(Nc3ccc(CC(=O)Nc4ccc(F)cc4)cc3)n2)[nH]n1`, the inhibition entry in experiment [1] is “Active”. Moreover, the inhibition result in experiment [2] was “inactive”.

With `CCN1CCN(c2cc(Nc3cc(C)n[nH]3)nc(Nc3ccc(CC(=O)NCc4cccc(F)c4)cc3)n2)CC1`, in experiment [1], the inhibition result is “Active”. Further, the inhibition result in experiment [2] was “inactive”.

As for `Cc1cc(Nc2cc(N3CCN(C)CC3)nc(Nc3ccc(CC(=O)Nc4ccc(C(C)C)cc4)cc3)n2)[nH]n1`, the inhibition result in experiment [1] is “Active”. Besides, in experiment [2], the inhibition result was “inactive”.
